Experiments:
ZR-75-1 cells = experiment: Cell proliferation assay (CCK8), ZR-75-1; type: cell-based, human; details: for proliferation of ZR-75-1 cells: 1 nM-10 μM, 6 days, 10% PRF-CT with 1 nM E2; for antiproliferative effect in presence of OH-Flutamide, ZR-75-1: 100 nM compound with 100 nM OH-Flutamide
Experimental: Fig. 2 Proliferative response of cancer cells to indicated compounds. a–c the effect of concentrations of different compounds on the growth of the cells. […] Cell growth was measured as described in the “Materials and methods”. The proliferation of cells is expressed as the ratio of the cells compared with the control wells (untreated cells). d, e Influence of different compounds on the cell cycle of MCF-7 cells. MCF-7 cells were cultured in 10% PRF-CT with E2 (1 nM) for 3 days before plating. Cells were seeded in six-well plates and, the next day, starved in PRF for 24 h. Cells were exposed to different compounds at a concentration of 100 nM for 72 h, and then subjected to cell-cycle analysis as described in “Materials and methods”. f MCF-7 cells on poly-L-lysine-coated glass coverslips were exposed to compounds (100 nM) in 10% PRF-CT with 1 nM E2 for 72 h. Control cells were treated with vehicle. DAPI stains DNA, and the secondary anti-mouse antibody to detect the antibody bound to Ki-67 is labeled with the cyanine dye Cy3. The cells were stained with DAPI (blue). Immunofluorescence staining of Ki-67 of cells was observed using fluorescence microscope. Red: Ki-67; blue: nucleus.Typical image is shown. Scale bars: 10 μm. Data represent a mean ± SEM of three independent experiments, each in triplicate; bars, SEM. *P ≤ 0.05 vs. control
After 24 h, cells were exposed for 3–6 days to various concentrations of compounds (1 nM– 10 μM) or left untreated. The incubation time and the compounds concentrations were chosen based on previous studies[17],[32]–[34]. The effects of the various drugs on cell proliferation at the indicated concentrations (1 nM– 10 μM) were determined by using a CCK8 kit (Dojindo Laboratories, Kumamoto, Japan) according to the manufacturer’s protocol. The absorbance at 450 nm was measured by using a Versamax microplate reader (Thermo Varioskan Flash, USA). Cell growth is expressed as the ratio of the cells compared with the control wells (untreated cells).

MCF-7 cells (AR siRNA) = experiment: Proliferation of MCF-7 cells after AR downregulation by siRNA; type: cell-based, human; details: 100 nM, 72 h
Experimental: Cells were cultured and treated as described in the legend of Fig. 2. […] Cell growth is expressed as the ratio of the number of cells in the experimental well to that in control wells (untreated cells). The columns represent the mean of three experiments, each with five replicates; bars, SEM. *P ≤ 0.05, **P ≤ 0.01 vs. control
AR siRNA and its control siRNA used in this study were described by Wu et al.. The sequence of the AR siRNA used was 5′-[…]-3′ and a nonspecific siRNA duplex was used as a negative control. Growing cells were switched to PRF for 24 h and then switched to 10% PRF–CT medium containing 1 nM E2 for 48 h. MCF-7 cells were trypsinized and transfected in suspension with 2.5 μg siRNA (siAR or scrambled siRNA) or pcDNA3.1-AR in six-well plates, using Lipofectamine 3000 (Invitrogen) in OPTI-MEM medium (Gibco), following the manufacturer’s instructions.

[1] = test system: prostate (P), seminal vesicle (SV), levator ani muscle (LA); experiment: Hershberger assay in orchiectomized rats; type: in vivo, Wistar male rats; details: doses as in Fig. 5, s.c. once a day, 12 days, castrated rats
Experimental: Fig. 5 Estimation of the androgenic and myotrophic activities of the indicated compounds obtained by the Hershberger Assay. Wistar male rats were orchiectomized (orchi) or sham-operated (intact) under ether anesthesia. After 14 days of endogenous hormonal decline, animals were randomly allocated to treatment and vehicle groups (n = 6). The numbers at the end of the abbreviations correspond to the dose in mg/kg body weight of the animal. Flutamide was given by gavage (10 mg/kg/day). […] Then the animals were treated once a day. The rats were sacrificed after completion of the 12-day treatment. Following removal, wet weights of the prostate (P), seminal vesicle (SV), levator ani muscle (LA) were determined. a Size and shape of P, SV and LA at the end of the treatment period. b, c, and d, influence of treatment with the compounds alone or together with the antiandrogen flutamide at the indicated doses on the weight of the organs (P, SV and LA) of the castrated animals. The mean wet weight is represented by the bars in the graphs. Values are means ± SEM; bars, SEM. *P ≤ 0.05, **P ≤ 0.01 vs. control
The Hershberger assay was performed according to the guidelines of the rodent Hershberger assay. Male Wistar rats (140 g, 5–6 weeks) were orchiectomized (orchi) or sham-operated (intact) under ether anesthesia. After 14 days of endogenous hormonal decline, animals were randomly allocated to treatment and vehicle groups (n = 6); orchi group = orchi rats receiving sham injections; intact group = sham-operated rats receiving sham injections; treatment group = orchi rats receiving drugs injections by subcutaneous. The antiandrogen flutamide given by gavage (10 mg/kg/day). Drugs were dissolved in ethanol and diluted in corn oil. The animals were treated once a day. Rats were sacrificed after completion of the 12-day treatment. Following removal, the wet weights of the P, SV, and LA muscle were determined. The data of tissue weights are presented as mean ± SEM.

Row | SMILES | proliferation of ZR-75-1 cells (ZR-75-1 cells) | antiproliferative effect in presence of OH-Flutamide, ZR-75-1 (ZR-75-1 cells) | inhibition of proliferation after AR downregulation (MCF-7 cells (AR siRNA)) | androgenic effect (P and SVs, size and wet weight) [1] | myotrophic effect (LA) [1]
1 | C[C@]12CCC(=O)C[C@@H]1CC[C@@H]1[C@@H]2CC[C@]2(C)[C@@H](O)CC[C@@H]12 [DHT, dihydrotestosterone] | inhibits the proliferation of MCF-7 and ZR-75-1 cells at all tested concentrations | almost completely abolished | AR downregulation diminishes the ability | – | –
2 | C=C1C[C@H]2[C@@H]3CC[C@H](O)[C@@]3(C)CC[C@@H]2[C@@]2(C)C=CC(=O)C=C12 [17-HEXE, 17-hydroexemestane] | – | behave like DHT | identical results | a little more androgenic than 4-OHT | –
3 | C[C@]12CC[C@H]3[C@@H](CCC4=C(O)C(=O)CC[C@@]43C)[C@@H]1CC[C@@H]2O [4-OHT, 4-hydroxytestosterone] | inhibits the proliferation of ZR-75-1 cells only at micromolar concentrations | behave like DHT | identical results | – | a little more myotrophic than 17-HEXE

Reference: article PMC6591174, “The beneficial androgenic action of steroidal aromatase inactivators in estrogen-dependent breast cancer after failure of nonsteroidal drugs” (Cell Death & Disease, 2019)
